Test results: PubChem BioAssay AID2060899 (Molecular Pharmacology Branch, DTP, NCI, 2025)
One block for each molecule: values may come before it.

Test system: 565726-208-R1-J5-PDC complex spheroids, growth inhibition
Assay: Anticancer human tumor 565726-208-R1-J5-PDC patient-derived pancreatic adenocarcinoma cell line growth inhibition [RAS]
Details: for IC50: curve of first compound; for viability, T/C: stronger effect = lower value
Procedure, shortened: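 Agents were tested in combination matrices in half-log decrements from a top concentration at or near clinical Cmax (10 microM if undetermined). Targets were multi-cell spheroids of tumour lines plus HUVEC and MSC stromal cells.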

[1] = second compound 0.00316 µM, first compound 0.0316 µM
[2] = second compound 0.00316 µM, first compound 0.1 µM
[3] = second compound 0.00316 µM, first compound 0.316 µM
[4] = second compound 0.00316 µM, first compound 1 µM
[5] = second compound 0.00316 µM, first compound 3.16 µM
[6] = second compound 0.00316 µM, first compound 10 µM
[7] = second compound 0.01 µM, first compound 0.0316 µM
[8] = second compound 0.01 µM, first compound 0.1 µM
[9] = second compound 0.01 µM, first compound 0.316 µM
[10] = second compound 0.01 µM, first compound 1 µM
[11] = second compound 0.01 µM, first compound 3.16 µM
[12] = second compound 0.01 µM, first compound 10 µM
[13] = second compound 0.0316 µM, first compound 0.0316 µM
[14] = second compound 0.0316 µM, first compound 0.1 µM
[15] = second compound 0.0316 µM, first compound 0.316 µM
[16] = second compound 0.0316 µM, first compound 1 µM
[17] = second compound 0.0316 µM, first compound 3.16 µM
[18] = second compound 0.0316 µM, first compound 10 µM
[19] = second compound 0.1 µM, first compound 0.0316 µM
[20] = second compound 0.1 µM, first compound 0.1 µM
[21] = second compound 0.1 µM, first compound 0.316 µM
[22] = second compound 0.1 µM, first compound 1 µM
[23] = second compound 0.1 µM, first compound 3.16 µM
[24] = second compound 0.1 µM, first compound 10 µM
[25] = second compound 0.316 µM, first compound 0.0316 µM
[26] = second compound 0.316 µM, first compound 0.1 µM
[27] = second compound 0.316 µM, first compound 0.316 µM
[28] = second compound 0.316 µM, first compound 1 µM
[29] = second compound 0.316 µM, first compound 3.16 µM
[30] = second compound 0.316 µM, first compound 10 µM
[31] = second compound 1 µM, first compound 0.0316 µM
[32] = second compound 1 µM, first compound 0.1 µM
[33] = second compound 1 µM, first compound 0.316 µM
[34] = second compound 1 µM, first compound 1 µM
[35] = second compound 1 µM, first compound 3.16 µM
[36] = second compound 1 µM, first compound 10 µM
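Further: spheroids exposed to compounds for seven days before readout.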
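Wherever viability, T/C is given: 100% = DMSO vehicle control viability.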

IC50 (second compound 0.000949 µM): 0.00234 µM
IC50 (second compound 0.003 µM): 0.00211 µM
IC50 (second compound 0.00949 µM): 0.00233 µM
IC50 (second compound 0.03 µM): 0.00206 µM
IC50 (second compound 0.0949 µM): 0.00198 µM
IC50 (second compound 0.3 µM): 0.00164 µM
SMILES: CCc1c2c(nc3ccc(O)cc13)-c1cc3c(c(=O)n1C2)COC(=O)[C@]3(O)CC + CCn1c(-c2cccnc2C(C)OC)c2c3cc(ccc31)N1CCOC(CC(NC(=O)C(C(C)C)N(C)C(=O)C3(F)CCN(C(=O)C#CC(C)(C)N(C)C)CC3)C(=O)N3CCCC(N3)C(=O)OCC(C)(C)C2)C1
viability, T/C (second compound 0.000949 µM, first compound 0.000949 µM): 79.2%
viability, T/C (second compound 0.000949 µM, first compound 0.003 µM): 39.5%
viability, T/C (second compound 0.000949 µM, first compound 0.00949 µM): 25.5%
viability, T/C (second compound 0.000949 µM, first compound 0.03 µM): 14.4%
viability, T/C (second compound 0.000949 µM, first compound 0.0949 µM): 8.88%
viability, T/C (second compound 0.000949 µM, first compound 0.3 µM): 4.44%
viability, T/C (second compound 0.003 µM, first compound 0.000949 µM): 80.3%
viability, T/C (second compound 0.003 µM, first compound 0.003 µM): 33.2%
viability, T/C (second compound 0.003 µM, first compound 0.00949 µM): 23.6%
viability, T/C (second compound 0.003 µM, first compound 0.03 µM): 15.5%
viability, T/C (second compound 0.003 µM, first compound 0.0949 µM): 10.2%
viability, T/C (second compound 0.003 µM, first compound 0.3 µM): 5.03%
viability, T/C (second compound 0.00949 µM, first compound 0.000949 µM): 79%
viability, T/C (second compound 0.00949 µM, first compound 0.003 µM): 38.5%
viability, T/C (second compound 0.00949 µM, first compound 0.00949 µM): 27%
viability, T/C (second compound 0.00949 µM, first compound 0.03 µM): 13.2%
viability, T/C (second compound 0.00949 µM, first compound 0.0949 µM): 8.85%
viability, T/C (second compound 0.00949 µM, first compound 0.3 µM): 4.19%
viability, T/C (second compound 0.03 µM, first compound 0.000949 µM): 75.5%
viability, T/C (second compound 0.03 µM, first compound 0.003 µM): 34.5%
viability, T/C (second compound 0.03 µM, first compound 0.00949 µM): 23.8%
viability, T/C (second compound 0.03 µM, first compound 0.03 µM): 13.5%
viability, T/C (second compound 0.03 µM, first compound 0.0949 µM): 8.23%
viability, T/C (second compound 0.03 µM, first compound 0.3 µM): 3.69%
viability, T/C (second compound 0.0949 µM, first compound 0.000949 µM): 73.3%
viability, T/C (second compound 0.0949 µM, first compound 0.003 µM): 35.2%
viability, T/C (second compound 0.0949 µM, first compound 0.00949 µM): 20.5%
viability, T/C (second compound 0.0949 µM, first compound 0.03 µM): 11.1%
viability, T/C (second compound 0.0949 µM, first compound 0.0949 µM): 6%
viability, T/C (second compound 0.0949 µM, first compound 0.3 µM): 2.81%
viability, T/C (second compound 0.3 µM, first compound 0.000949 µM): 67.1%
viability, T/C (second compound 0.3 µM, first compound 0.003 µM): 30%
viability, T/C (second compound 0.3 µM, first compound 0.00949 µM): 16.7%
viability, T/C (second compound 0.3 µM, first compound 0.03 µM): 8.71%
viability, T/C (second compound 0.3 µM, first compound 0.0949 µM): 5.1%
viability, T/C (second compound 0.3 µM, first compound 0.3 µM): 2.77%

IC50 (second compound 0.00316 µM): > 10 µM
IC50 (second compound 0.01 µM): > 10 µM
IC50 (second compound 0.0316 µM): > 10 µM
IC50 (second compound 0.1 µM): > 10 µM
IC50 (second compound 0.316 µM): > 10 µM
IC50 (second compound 1 µM): > 10 µM
SMILES: CC(C)NCC(C(=O)N1CCN(c2ncnc3c2C(C)CC3O)CC1)c1ccc(Cl)cc1 (stereo unspecified) + C=CC(=O)N1CCN(c2nc(OCC3CCCN3C)nc3c(F)c(-c4nc(N)cc(C)c4C(F)(F)F)c(Cl)cc23)C(C)C1
viability, T/C [1]: 90.5%
viability, T/C [2]: 152%
viability, T/C [3]: 89%
viability, T/C [4]: 91%
viability, T/C [5]: 93.3%
viability, T/C [6]: 110%
viability, T/C [7]: 133%
viability, T/C [8]: 153%
viability, T/C [9]: 91%
viability, T/C [10]: 78.3%
viability, T/C [11]: 104%
viability, T/C [12]: 127%
viability, T/C [13]: 125%
viability, T/C [14]: 160%
viability, T/C [15]: 90.2%
viability, T/C [16]: 89.8%
viability, T/C [17]: 93.5%
viability, T/C [18]: 125%
viability, T/C [19]: 176%
viability, T/C [20]: 154%
viability, T/C [21]: 93.1%
viability, T/C [22]: 85.4%
viability, T/C [23]: 80.6%
viability, T/C [24]: 120%
viability, T/C [25]: 147%
viability, T/C [26]: 153%
viability, T/C [27]: 88.5%
viability, T/C [28]: 96.6%
viability, T/C [29]: 73.4%
viability, T/C [30]: 118%
viability, T/C [31]: 175%
viability, T/C [32]: 155%
viability, T/C [33]: 130%
viability, T/C [34]: 95.1%
viability, T/C [35]: 80.7%
viability, T/C [36]: 95.9%

IC50 (second compound 0.00316 µM): > 10 µM
IC50 (second compound 0.01 µM): > 10 µM
IC50 (second compound 0.0316 µM): > 10 µM
IC50 (second compound 0.1 µM): > 10 µM
IC50 (second compound 0.316 µM): > 10 µM
IC50 (second compound 1 µM): > 10 µM
SMILES: Cc1nc(N2CCC3(CC2)COC(C)C3N)c(CO)nc1Sc1ccnc(N)c1Cl (stereo unspecified) + C=CC(=O)N1CCN(c2nc(OCC3CCCN3C)nc3c(F)c(-c4nc(N)cc(C)c4C(F)(F)F)c(Cl)cc23)C(C)C1
viability, T/C [1]: 115%
viability, T/C [2]: 142%
viability, T/C [3]: 71%
viability, T/C [4]: 86.8%
viability, T/C [5]: 117%
viability, T/C [6]: 143%
viability, T/C [7]: 154%
viability, T/C [8]: 134%
viability, T/C [9]: 77.8%
viability, T/C [10]: 87.9%
viability, T/C [11]: 121%
viability, T/C [12]: 148%
viability, T/C [13]: 149%
viability, T/C [14]: 173%
viability, T/C [15]: 77.3%
viability, T/C [16]: 90.5%
viability, T/C [17]: 126%
viability, T/C [18]: 139%
viability, T/C [19]: 162%
viability, T/C [20]: 147%
viability, T/C [21]: 80.6%
viability, T/C [22]: 74.2%
viability, T/C [23]: 138%
viability, T/C [24]: 126%
viability, T/C [25]: 180%
viability, T/C [26]: 136%
viability, T/C [27]: 78.5%
viability, T/C [28]: 76.7%
viability, T/C [29]: 106%
viability, T/C [30]: 140%
viability, T/C [31]: 167%
viability, T/C [32]: 135%
viability, T/C [33]: 78.3%
viability, T/C [34]: 83.4%
viability, T/C [35]: 111%
viability, T/C [36]: 133%
